Source: US10232020B2, “Incretin-insulin conjugates” (priority 2014, dated 2019)
Non-standard residues stand in square brackets, D forms with d. No end group written: not given here. Aib = CC(C)(N)C(=O)O

What was measured:
[1] = test system: normal mice; experiment: Blood glucose after single administration to normal mice; format: in vivo; details: 50 nmoles/kg, FIG. 8
Procedure: Six- to eight-week-old male C57BL/6 mice were maintained at 23° C., constant humidity, and a 12-h light-dark cycle. The acute in vivo effects of select peptides were evaluated by subcutaneously injecting peptides solubilized in physiologically buffered saline or a vehicle control to normal or diabetic mice. Blood glucose was measured at various time points through the course of a 24 hr period following administration of the peptides. Each group of mice contained 8 animals per group. The average body weight was ˜25 g. Mice were made diabetic by administration of streptozotocin.

[2] = target: T1, insulin receptor (IR-B) (Homo sapiens, UniProt P06213); experiment: In vitro activity at insulin B receptor (IR-B); format: cell-based; details: FIG. 1B
T1 construct: expressed in transfected cells
Procedure: Color development was stopped 5 min later by adding 0.05 ml 1 N HCl. Absorbance at 450 nm was measured on Titertek Multiscan MCC340 (ThermoFisher, Pittsburgh, Pa.). […] Structures associated with the abbreviated lipidated groups designated in Table 4 are as follows: […]

[3] = target: insulin subtype A receptor (Homo sapiens, UniProt P06213); experiment: In vitro activity at insulin subtype A receptor; format: cell-based; details: FIG. 1A
[4] = Dose titration on food intake and blood glucose (FIGS. 20-25); format: in vivo
[5] = test system: GPL-1 receptor knock out mice; experiment: Glucose tolerance test and food intake in GLP-1 receptor knock out mice; format: in vivo; details: GLP-1 knock out mice; 3 nmol/kg; FIG. 28
Description: FIG. 26 is a graph of a glucose tolerance test conducted on wild type mice (solid lines) and on GPL-1 receptor knock out mice (dashed lines).

Substance: IUB-48: GLP-1 agonist, HXEGTFTSDVSSYLEEQAAKEFIAWLVKGGPSSGAPPPS (SEQ ID NO: 1932) (H[Aib]EGTFTSDVSSYLEEQAAKEFIAWLVKGGPSSGAPPPS)
- blood glucose levels [1]: about 60 mg/dL

Substance: GLP-DP8: GLP-1/insulin fusion, SEQ ID NO: 700; GLP-1 agonist peptide fused to the N-terminus of a single chain insulin analog (HAEGTFTSDVSSYLEEQAAREFIAWLVRGRG; GLP-1 analog)
- potency at the insulin B receptor [2]: about 9.9 nanomoles
- potency at the A receptor [3]: about 2.07 nanomoles

Substance: CIU-093: XEGTFTSDUSIYLDKQAAXEFVNWLLAGGPSSGAPPPS (SEQ ID NO: 1996); C(S-S)—CH2CH2CH2-B^1 Insulin
- food intake ([4]; FIG. 22): does not suppress food intake
- blood glucose ([4]; FIG. 25): a much higher dosage is required to get the same glucose lowering
- food intake [5]: no reduction in food intake
